Results on one compound are retold here after paper PMC3334291 (Biochemistry, 2012).

Assay [1] deals with MelBSt (melibiose permease of Salmonella typhimurium) (Salmonella enterica, UniProt P30878, L5M). Particulars: read-out: WT; 20 mM NaCl, 10 μM D2G, 100 mM KPi pH 7.5; sugar site, competitive.
Assay [2] concerns the target MelBSt (melibiose permease of Salmonella typhimurium) (Salmonella enterica, UniProt P30878, L5M/G117A). Particulars: read-out: G117A; 20 mM NaCl, 10 μM D2G, 100 mM KPi pH 7.5; sugar site, competitive.

Consider `OC[C@H]1O[C@H](OC[C@H]2OC(O)[C@H](O)[C@@H](O)[C@@H]2O)[C@H](O)[C@@H](O)[C@H]1O` (some centres unmarked) [melibiose], for which the IC50 in assay [1] worked out at 3.8 mM; in assay [2], 8.1 mM.
